Patent US20220306603A1, “TARGETING DNA REPAIR IN TUMOR CELLS VIA INHIBITION OF ERCC1-XPF” (The Governors of the University of Alberta, priority 2019, published 2022)
“Also recorded” adds a separate entry of the source.

Columns and labels:
HCT116 cells [1] = experiment: Clonogenic survival assay, UV treatment; assay type: cell-based, human; conditions: 254 nm UV 0-10 J/m^2; compound 0.5-4 μM
Protocol: UV treatment: HCT116 cells (100-800 cells depending on the UV dose) were plated in triplicate in 60-mm petri dishes. The cells were incubated overnight at 37° C. in a humidified atmosphere containing 5% CO2 to allow for cell attachment. […] Medium was removed again, and cells were exposed to increasing doses (0-10 J/m^2) of UV-C radiation and then incubated for a further 10 days in the presence of inhibitor at 37° C. in a 5% CO2 atmosphere to allow for colony formation. After this period plates were stained with crystal violet and colonies were counted using a Colcount instrument (Oxford Optronix, Abingdon UK). Finally, plating efficiency and surviving fraction were calculated.

HCT116 cells [2] = experiment: Clonogenic survival assay, cyclophosphamide treatment; assay type: cell-based, human; conditions: cyclophosphamide 0-300 μM; compound 1-4 μM
Protocol: Plates were incubated for another 8 days at 37° C. in a 5% CO2 atmosphere for colony formation. After this period plates were stained with crystal violet, colonies were counted, and plating efficiency and surviving fraction were calculated.

[3] = ADME screening: solubility; assay type: physicochemical; conditions: Table 8
ERCC1-XPF = target: T1, ERCC1-XPF (Homo sapiens, UniProt Q92889); experiment: Microplate fluorescence incision assay of ERCC1-XPF endonuclease activity; assay type: biochemical
T1 construct: His6; made in house; host or cells: E. coli BL21 (DE3)
T1 sequence (Q92889 1-916): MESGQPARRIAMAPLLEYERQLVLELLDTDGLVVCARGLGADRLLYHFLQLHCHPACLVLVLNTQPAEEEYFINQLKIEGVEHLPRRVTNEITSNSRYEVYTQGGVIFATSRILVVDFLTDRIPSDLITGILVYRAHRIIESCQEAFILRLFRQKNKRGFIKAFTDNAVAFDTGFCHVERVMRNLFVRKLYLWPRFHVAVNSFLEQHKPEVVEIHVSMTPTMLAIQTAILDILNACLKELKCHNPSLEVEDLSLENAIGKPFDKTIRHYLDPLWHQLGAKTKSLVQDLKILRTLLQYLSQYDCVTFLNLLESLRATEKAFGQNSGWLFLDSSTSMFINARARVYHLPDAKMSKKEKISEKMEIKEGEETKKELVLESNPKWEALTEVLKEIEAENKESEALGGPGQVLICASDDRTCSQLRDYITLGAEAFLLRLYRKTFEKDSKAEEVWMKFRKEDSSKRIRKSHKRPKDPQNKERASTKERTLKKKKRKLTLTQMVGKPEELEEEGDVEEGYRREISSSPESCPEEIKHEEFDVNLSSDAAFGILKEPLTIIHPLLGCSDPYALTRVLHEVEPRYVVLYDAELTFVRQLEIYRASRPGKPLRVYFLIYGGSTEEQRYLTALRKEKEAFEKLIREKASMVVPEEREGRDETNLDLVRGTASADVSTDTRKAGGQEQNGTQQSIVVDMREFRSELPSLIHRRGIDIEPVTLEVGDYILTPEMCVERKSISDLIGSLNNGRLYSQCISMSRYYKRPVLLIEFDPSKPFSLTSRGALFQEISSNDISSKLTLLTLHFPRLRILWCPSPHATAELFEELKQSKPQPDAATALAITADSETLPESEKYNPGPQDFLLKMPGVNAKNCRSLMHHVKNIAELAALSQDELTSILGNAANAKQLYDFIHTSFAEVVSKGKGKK
Excerpt: This assay has been previously described (29), and utilizes a stem-loop substrate (composed of a 10mer-duplex stem and a 20mer-oligodT single-strand loop), labelled on the 5′-terminus with 6-FAM and 3′ with the quencher dabcyl.
Human ERCC1-XPF wild-type protein was obtained as previously described (29). Basically, the recombinant protein was expressed from a bicistronic plasmid (provided by Dr. Richard Wood, University of Texas MD Anderson Cancer Center, Smithville, Tex.) in the E. coli BL21 (DE3) strain. Since both XPF and ERCC1 contained a polyhistidine (His-6) tag, the proteins extracted from E. coli were incubated with a ProBond Nickel-Chelating Resin (Thermo Fisher Scientific). Protein eluted from the Ni affinity column was subsequently loaded into a Hi-trap heparin column (GE Healthcare). Fractions recovered from the heparin column that contained ERCC1-XPF were dialyzed, concentrated and stored at −80° C. in 10 mM HEPES pH 7.4, 2.5 mM p-mercaptoethanol, 0.01% CHAPS, 0.25 mM EDTA, 50% glycerol and 25 mM NaCl.
A previously described protocol (2,29) was followed.

HCT116 cells [4] = experiment: Cellular repair of UV-induced cyclobutane pyrimidine dimers (immunofluorescence); assay type: cell-based, human; conditions: 8 J/m^2 UV-C, up to 24 h post-irradiation
Protocol: Protocol of Mirzayans et al. was followed with minor modifications (30). Approximately 1×10^5 HCT116 cells were seeded on each coverslip and allowed to attach overnight. Medium was then removed and cells were treated for one hour with the desired compound. The medium was removed, and cells were exposed to 8 J/m^2 UV-C radiation (G15T8 254 nm lamp, Ushio America Inc, Cypress, Calif.) followed by adding fresh medium containing the compound. Plates were incubated at 37° C. for different periods of time up to 24 hours and fixed in 50:50 methanol/1× phosphate-buffered saline (PBS) solution, followed by replacing the methanol/PBS solution with 100% methanol and incubation in −20° C. After 20 minutes, methanol was removed, and cells were treated with PBS for 5 minutes in room temperature. After fixing, cells were permeabilized in 0.5% Triton/PBS and washed with PBS, denatured in 2 N HCl, and neutralized by twice washing with 0.1 M borate buffer pH 8.5. Cells on cover slips were washed once with PBS followed by blocking with 5% non-fat dry milk/PBS for 30 minutes. Mouse anti-thymine dimer monoclonal antibody (Cat. No. MC-062, Kamiya Biomedical Company, Seattle, Wash.) was applied to the cover slips for one hour in the dark and at room temperature. Cells were then washed with PBS containing 0.1% Tween-20 and incubated with rabbit anti-mouse IgG-Alexafluor antibody (Invitrogen, Carlsbad, Calif.) followed by two washes with PBS/(0.1%)Tween-20. Cells on coverslips were then washed with PBS, rinsed with water, and mounted on slides using DAPI glycerol mounting solution. Slides were kept at 4° C. before fluorescent microscopic evaluation and measurement of fluorescence intensity with MetaXpress Version: 6.2.1.704 software (Molecular Devices, Sunnyvale, Calif.).
To test for inhibition of nucleotide excision repair, we monitored the cellular removal of UVC-induced cyclobutane pyrimidine dimers (CPDs) in HCT116 cells over a 24-hour period using an immunochemical assay.

[5] = ADME screening: cell permeability and efflux ratio; conditions: Table 8
[6] = Hepatocyte stability in vitro; assay type: in vitro ADME; conditions: Table 8
[7] = Microsomal stability in vitro (human liver microsomes); conditions: Table 8
serum proteins = experiment: ADME screening: serum protein binding; assay type: in vitro ADME; conditions: Table 8
HCT116 cells [8] = experiment: Cytotoxicity profile: crystal violet viability assay (and colony forming assay); assay type: cell-based, human; conditions: crystal violet staining; for Gen C1 also colony forming assay
Protocol: Crystal violet viability assays were carried out to assess the cellular toxicity of these compounds to HCT116 cells and to choose relatively non-cytotoxic concentrations to be further utilised in sensitizing cells to UV radiation or cyclophosphamide.
The beneficial effect is especially visible at a concentration of 5.0 μM. At higher concentrations, both compounds show an equal cytotoxic effect (FIG. 15).

[9] = system: five CYP450 tested enzymes

Compound: COc1ccc2nc3cc(Cl)ccc3c(Nc3ccc(O)c(CN4CCN(CCN(C(C)C)C(C)C)CC4)c3)c2c1 [Gen C-1, 4-((6-Chloro-2-methoxyacridin-9-yl)amino)-2-((4-(2-(diisopropylamino)ethyl)piperazin-1-yl)methyl)-phenol]
- sensitisation to UV radiation, clonogenic survival (in words) (HCT116 cells [1]): significant sensitisation effect
- sensitisation to cyclophosphamide, clonogenic survival (in words) (HCT116 cells [2]): significantly sensitised the HCT116 cells to cyclophosphamide; also recorded: significantly sensitized the cells to cyclophosphamide
- Solubility (in words) [3]: Good
- LogD (rating) (ADME screening: LogD; Table 8): Good
- LogD (remark in the LogD row) (ADME screening: LogD; Table 8): (partially soluble)
- logD (ADME screening: LogD; pH 7.4): 3.95
- inhibition of ERCC1-XPF endonuclease activity (in words) (ERCC1-XPF; compounds 10 μM each): higher inhibitory effect
- IC50 (ERCC1-XPF; full-length ERCC1-XPF, 30 minutes incubation, 5% DMSO, read-out: IC50 of ERCC1-XPF endonuclease activity): 167 nM
- inhibition of cellular removal of CPDs / thymidine dimers (in words) (HCT116 cells [4]): significant inhibition of removal of CPDs
- Cell permeability (Mean recovery %) (in words) [5]: Low
- Hepatocyte stability in vitro CLint (in words) [6]: (medium clearance)
- Microsomal stability in vitro CLint (in words) [7]: Low clearance
- Serum protein binding (% bound) (serum proteins): (99.5) % bound
- Serum protein binding (in words) (serum proteins): Strong binding
- cytotoxicity (in words) (HCT116 cells [8]): lower cytotoxicity
- CVP inhibition (5 enzyme) (rating) [9]: Good
